Molecules are shown by their SMILES. pIC50: −log10 of the molar value. In brackets after ≈: the same amount, converted by molar mass. Some results are limits rather than exact numbers.

What is called GI50 is the concentration giving 50% growth inhibition. The term pIC50 denotes the negative decadic logarithm of the IC50, by convention in mol/L. As a reminder, the MIC is the smallest concentration in the dilution series that meets the test's criterion for growth inhibition.

The subject of one test is A549. Briefly: cells. Particulars: Homo sapiens, A549, 48 h; for CC50: read-out: LC50; for IC (TGI): read-out: TGI. Format: cell-based. The text has this:
(§1) The aim of this assay is to evaluate the in vitro cytostatic (ability to delay or arrest tumor cell growth) or cytotoxic (ability to kill tumor cells) activity of the samples being tested.
(§2) Evaluation of Cytotoxic Activity Using the SBR Colorimetric Assay
(§3) A colorimetric type of assay, using sulforhodamine B (SRB) reaction has been adapted for a quantitative measurement of cell growth and viability (following the technique described by Skehan P et al. J. Natl. Cancer Inst. 1990, 82, 1107-1112).
(§4) This form of assay employs SBS-standard 96-well cell culture microplates (Faircloth et al. Methods in cell science, 1988, 11(4), 201-205; Mosmann et al, Journal of. Immunological. Methods, 1983, 65(1-2), 55-63). All the cell lines used in this study, derived from different types of human cancer, were obtained from the American Type Culture Collection (ATCC).
(§5) Cells were maintained in Dulbecco's Modified Eagle Medium (DMEM) supplemented with 10% Fetal Bovine Serum (FBS), 2 mM L-glutamine, 100 U/mL penicillin and 100 U/mL streptomycin at 37° C., 5% CO2 and 98% humidity. For the experiments, cells were harvested from subconfluent cultures using trypsinization and resuspended in fresh medium before counting and plating.
(§6) Cells were seeded in 96 well microtiter plates at 5×10^3 cells per well in aliquots of 150 μL, and allowed to attach to the plate surface for 18 hours in drug free medium. One control (untreated) plate of each cell line was fixed (as described below) and used for time zero reference value. Afterwards, test samples were added to the cultures in ten serial dilutions, in aliquots of 50 μL, ranging from 10 to 0.00262 μg/mL. After 48 hours exposure, the antitumor effect was estimated by the SRB method: Briefly, cells were washed twice with PBS, fixed for 15 min in 1% glutaraldehyde solution, rinsed twice in PBS, and stained in 0.4% SRB solution for 30 min at room temperature. Cells were then rinsed several times with 1% acetic acid solution and air-dried. SRB was then extracted in 10 mM trizma base solution and the absorbance measured in an automated spectrophotometric plate reader at 490 nm. Cell survival was expressed as percentage of control cell growth. The final effect of the sample being tested was estimated by applying the NCI algorithm (Boyd M R and Paull K D. Drug Dev. Res. 1995, 34, 91-104).
(§7) Using the mean±SD of triplicate cultures, a dose-response curve was automatically generated using nonlinear regression analysis. Three reference parameters were calculated (NCI algorithm) by automatic interpolation: GI50=concentration that produces 50% growth inhibition; TGI=total growth inhibition (cytostatic effect) and LC50=concentration that produces 50% net cell killing (cytotoxic effect).

The next test deals with HT29. Briefly: cells. Format: cell-based. Particulars: Homo sapiens, HT-29, 48 h; for CC50: read-out: LC50; for IC (TGI): read-out: TGI.
Text: as §1, §2, §3, §4, §5, §6, §7

For the next test, the system named is MDA-MB-231. Description: cells. Format: cell-based. Particulars: Homo sapiens, MDA-MB-231, 48 h; for CC50: read-out: LC50; for IC (TGI): read-out: TGI.
Text: as §1, §2, §3, §4, §5, §6, §7

In the next test the test system is HeLa cells. Description: Anti-mitotic assay (anti-MPM2 immunoassay). Format: cell-based. Particulars: Homo sapiens, 18 hours incubation, read-out: IC50 (50% mitotic arrest). Here is the method:
Anti-Mitotic Assay Protocol
The mitotic ratio of the cell cultures (percentage of cells arrested in mitosis) was estimated using a specific 96-well microplate immunoassay that quantitatively detects a specific mitotic marker. HeLa cells (h-cervix carcinoma, ATCC# CCL-2) were incubated for 18 hours in the presence or absence of the samples being tested. Afterwards, cells were washed with PBS and lysed on ice in 75 μL of freshly prepared lysis buffer (1 mM EGTA (pH 7.5), 0.5 mM PMSF and 1 mM NaVO3) for 30 min. An aliquot of the cell extract (60 μL) was transferred to a high-binding surface ELISA plate and dried in a speed-vac for 2 h at room temperature. Plates were then blocked in 100 μL. PBS-1% BSA for 30 min at 30° C. and sequentially incubated with anti-MPM2 primary mouse monoclonal antibody (Upstate Biotechnology, cat #05-368) for 18 h at 4° C. and appropriate peroxidase-conjugated secondary antibody for 1 h at 30° C. After intensive washing in 0.02% Tween-20, peroxidase reaction were performed using 30 μL of TMB (3,3′,5,5′-tetramethyl-benzidine) for 30 min at 30° C. Reaction was stopped by adding 30 μL of a 4% H2SO4 solution. Assay was quantified by measuring the O.D. at 450 nm in a microplate spectrophotometer. Results were expressed as IC50, sample concentration that produces 50% mitotic arrest in treated cell cultures, as compared to control, untreated cultures.

Another test concerns breast cancer carcinoma. Particulars: cited from earlier work.
Another test concerns Saccharomyces cerevisiae. Particulars: fungus Saccharomyces cerevisiae; cited from earlier work.
The test system of test [1] is L929 mouse fibroblast cell culture. Particulars: cited from earlier work.

Regarding `COC1=CCC(C(C)/C=C(C)/C=C/C=C\C(=O)NC(C(=O)N/C=C\CC(C/C=C(\C)Cl)OC(N)=O)C(C)(C)C)OC1=O` (stereo not drawn) [Compound 2], in the test on A549, the concentration for 50% growth inhibition (GI50) came out at 8.63 nM, the CC50 was ≥ 16500 nM and the IC (TGI) was determined as 23.7 nM. Besides, in the test with HT29, the GI50 worked out at 8.31 nM, the CC50 is 17.2 nM and the IC (TGI) was 10.9 nM. Also, in the test on MDA-MB-231, the GI50 came out at 9.85 nM, the CC50 worked out at 72 nM and the IC (TGI) is 21.5 nM. Besides, in the test with HeLa cells, the pIC50 was 7.58.
Regarding `CC(=O)O[C@H]1C(=O)[C@@]2(C)[C@H]([C@H](OC(=O)c3ccccc3)[C@]3(O)C[C@H](OC(=O)[C@H](O)[C@@H](NC(=O)c4ccccc4)c4ccccc4)C(C)=C1C3(C)C)[C@]1(OC(C)=O)CO[C@@H]1C[C@@H]2O` [paclitaxel], the negative logarithm of the IC50 (pIC50) in the test with breast cancer carcinoma is 8.68.
Regarding `COC(=O)CNC(=O)CCC/C=C\NC(=O)/C=C(C)/C=C/[C@H](C)[C@H](OC)[C@H](C)[C@H](/C=C/c1ccccc1)OC` [crocacin D], in the test with Saccharomyces cerevisiae, the MIC is 0.0014 µg/mL (≈ 0.00259 µM). In addition, the “IC50 (toxicity)” value in test [1] was 0.06 µg/mL (≈ 0.111 µM).
With `C=C/C=C\[C@H](C)[C@H](OC(N)=O)[C@@H](C)[C@H](O)[C@@H](C)C/C(C)=C\[C@H](C)[C@@H](O)[C@@H](C)/C=C\[C@@H](O)CC1OC(=O)[C@H](C)[C@@H](O)[C@H]1C` (single isomer, unassigned; (+)) [(+)-discodermolide], in the test with breast cancer carcinoma, the pIC50 is 8.62.
Turning to `COC1=CC[C@@H]([C@@H](C)/C=C(C)/C=C\C=C/C(=O)N[C@H](C(=O)N/C=C\C[C@H](C/C=C(\C)Cl)OC(N)=O)C(C)(C)C)OC1=O` [Compound 1], in the test on A549, growth was halved (GI50) at 0.379 nM, the CC50 is > 165 nM and the IC (TGI) came to 1.09 nM. In addition, in the test with HT29, the GI50 is 0.462 nM, the CC50 is 0.99 nM and the IC (TGI) is 0.61 nM. Further, in the test with MDA-MB-231, halving of growth (GI50) required 0.445 nM, the CC50 amounted to 2.8 nM and the IC (TGI) stood at 0.99 nM. Also, the pIC50 with HeLa cells is 7.58.

Values taken from patent US8324406B2, “Antitumoral dihydropyran-2-one compounds” (priority 2006, dated 2012).
